System: P12-Ichikawa
Assay: cell viability relative to DMSO control; higher = less cytotoxic
Details: 48 h
Outline: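 Leukemia cells (NOMO1 or SEM, 500 cells/well; P12-Ichikawa, 1000 cells/well) were seeded in 5 μl in 1536-well plates after at least four passages of adaptation to each medium. They received library compounds in DMSO by pin dosing, 11 threefold points from 47 μM to 0.79 nM. Luminescence with CellTiter-Glo One was read after 48 h at 37°C. Viability is stated per plate relative to DMSO wells, with cell-free wells as background.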

[1] = HPLM + 10% dialyzed FBS, 0.000781 µM
[2] = HPLM + 10% dialyzed FBS, 0.00234 µM
[3] = HPLM + 10% dialyzed FBS, 0.00702 µM
[4] = HPLM + 10% dialyzed FBS, 0.0211 µM
[5] = HPLM + 10% dialyzed FBS, 0.0632 µM
[6] = HPLM + 10% dialyzed FBS, 0.19 µM
[7] = HPLM + 10% dialyzed FBS, 0.569 µM
[8] = HPLM + 10% dialyzed FBS, 1.71 µM
[9] = HPLM + 10% dialyzed FBS, 5.12 µM
[10] = HPLM + 10% dialyzed FBS, 15.4 µM
[11] = HPLM + 10% dialyzed FBS, 46.1 µM
[12] = RPMI 5 mM glucose + 10% FBS, 0.000781 µM
[13] = RPMI 5 mM glucose + 10% FBS, 0.00234 µM
[14] = RPMI 5 mM glucose + 10% FBS, 0.00702 µM
[15] = RPMI 5 mM glucose + 10% FBS, 0.0211 µM
[16] = RPMI 5 mM glucose + 10% FBS, 0.0632 µM
[17] = RPMI 5 mM glucose + 10% FBS, 0.19 µM
[18] = RPMI 5 mM glucose + 10% FBS, 0.569 µM
[19] = RPMI 5 mM glucose + 10% FBS, 1.71 µM
[20] = RPMI 5 mM glucose + 10% FBS, 5.12 µM
[21] = RPMI 5 mM glucose + 10% FBS, 15.4 µM
[22] = RPMI 5 mM glucose + 10% FBS, 46.1 µM
[23] = RPMI 5 mM glucose + 10% dialyzed FBS, 0.000781 µM
[24] = RPMI 5 mM glucose + 10% dialyzed FBS, 0.00234 µM
[25] = RPMI 5 mM glucose + 10% dialyzed FBS, 0.00702 µM
[26] = RPMI 5 mM glucose + 10% dialyzed FBS, 0.0211 µM
[27] = RPMI 5 mM glucose + 10% dialyzed FBS, 0.0632 µM
[28] = RPMI 5 mM glucose + 10% dialyzed FBS, 0.19 µM
[29] = RPMI 5 mM glucose + 10% dialyzed FBS, 0.569 µM
[30] = RPMI 5 mM glucose + 10% dialyzed FBS, 1.71 µM
[31] = RPMI 5 mM glucose + 10% dialyzed FBS, 5.12 µM
[32] = RPMI 5 mM glucose + 10% dialyzed FBS, 15.4 µM
[33] = RPMI 5 mM glucose + 10% dialyzed FBS, 46.1 µM

Row | Structure (SMILES) | cell viability [1] [%] | cell viability [2] [%] | cell viability [3] [%] | cell viability [4] [%] | cell viability [5] [%] | cell viability [6] [%] | cell viability [7] [%] | cell viability [8] [%] | cell viability [9] [%] | cell viability [10] [%] | cell viability [11] [%] | cell viability [12] [%] | cell viability [13] [%] | cell viability [14] [%] | cell viability [15] [%] | cell viability [16] [%] | cell viability [17] [%] | cell viability [18] [%] | cell viability [19] [%] | cell viability [20] [%] | cell viability [21] [%] | cell viability [22] [%] | cell viability [23] [%] | cell viability [24] [%] | cell viability [25] [%] | cell viability [26] [%] | cell viability [27] [%] | cell viability [28] [%] | cell viability [29] [%] | cell viability [30] [%] | cell viability [31] [%] | cell viability [32] [%] | cell viability [33] [%]
1 | CC(C)CNc1ccnc(NCc2csc(-c3ccccc3)n2)n1 | 110 | 123 | 128 | 132 | 130 | 132 | 127 | 115 | 101 | 96.3 | 63.6 |  |  |  |  |  |  |  |  |  |  |  |  |  |  |  |  |  |  |  |  |  | 
2 | C[C@]12COC(=O)C[C@@H]1CC[C@@H]1[C@@H]2CC[C@@]2(C)[C@H]1CC[C@]2(C)O | 105 | 107 | 117 | 107 | 110 | 102 | 107 | 103 | 102 | 100 | 88.1 | 106 | 109 | 101 | 100 | 107 | 105 | 113 | 98.3 | 101 | 103 | 97.4 | 101 | 98.6 | 97.5 | 104 | 92.3 | 101 | 99.2 | 104 | 94.1 | 98.7 | 95.2
3 | CC[S+](=O)([O-])c1cccc(-c2cc(C(=O)NC3CCN(C)CC3)c(C)c3[nH]c4ncc(C)cc4c23)c1 | 121 | 122 | 123 | 128 | 123 | 112 | 15.7 | 19.5 | 19 | 26.9 | 34.9 |  |  |  |  |  |  |  |  |  |  |  |  |  |  |  |  |  |  |  |  |  | 
4 | COc1ccc([S+](=O)([O-])N(C(C)=O)c2ccccc2/C=C/c2cc[n+]([O-])cc2)cc1 | 119 | 125 | 118 | 121 | 125 | 118 | 116 | 64.9 | 24.5 | 25.1 | 10.5 |  |  |  |  |  |  |  |  |  |  |  |  |  |  |  |  |  |  |  |  |  | 
5 | C[C@H]1COC2=C3N1\C=C(C(O)=O)/C(=O)C3=CC(=C2N4CCN(C)CC4)F | 117 | 116 | 121 | 116 | 109 | 113 | 97.2 | 109 | 92.7 | 85.6 | 82.9 | 111 | 113 | 117 | 120 | 98.2 | 116 | 98.6 | 103 | 84.2 | 62.5 | 70.4 | 109 | 111 | 114 | 118 | 108 | 112 | 91.7 | 94.7 | 82.4 | 74.2 | 62.6
6 | CC(C)N[C@@H]1CCn2c(=O)[nH]c3cccc(c32)[C@H]1O | 111 | 112 | 118 | 120 | 117 | 115 | 109 | 112 | 97.1 | 107 | 100 | 129 | 112 | 121 | 122 | 114 | 104 | 116 | 110 | 110 | 113 | 106 | 105 | 104 | 116 | 114 | 109 | 108 | 99.6 | 105 | 104 | 97.9 | 93.8
7 | CN1CCN(C2=Nc3cc(Cl)ccc3Nc3ccccc32)CC1 | 102 | 105 | 108 | 108 | 91.6 | 115 | 116 | 116 | 106 | 104 | 94.4 | 91.6 | 120 | 115 | 120 | 95.8 | 125 | 107 | 115 | 124 | 108 | 108 | 100 | 103 | 103 | 102 | 96.7 | 112 | 109 | 116 | 105 | 108 | 93.2
8 | C[C@](Cc1c[nH]c2ccccc12)(NC(=O)OC1C2CC3CC(C2)CC1C3)C(=O)NC[C@H](NC(=O)CCC(=O)O)c1ccccc1 (some centres undefined) | 112 | 129 | 125 | 130 | 131 | 128 | 138 | 132 | 122 | 129 | 122 |  |  |  |  |  |  |  |  |  |  |  |  |  |  |  |  |  |  |  |  |  | 
9 | C[C@@]12C(=O)OC(=O)[C@@]1(C)C1CCC2O1 | 106 | 103 | 106 | 112 | 111 | 108 | 109 | 92.2 | 90 | 13.2 | 12.4 | 110 | 102 | 102 | 109 | 106 | 98.9 | 103 | 102 | 92.3 | 8.07 | 6.24 | 104 | 111 | 109 | 104 | 105 | 109 | 105 | 97.5 | 93.3 | 10.6 | 7.9
10 | CC1=C(C)C(=O)C(C(CCCCCC(=O)O)c2ccccc2)=C(C)C1=O (centres undefined) | 76.1 | 91.6 | 83.8 | 76.4 | 80.6 | 84.5 | 73.8 | 83.9 | 86.2 | 84.5 | 70.6 | 86 | 91.2 | 96.2 | 94.5 | 103 | 97.5 | 82.3 | 96.1 | 72.9 | 66.7 | 56.6 | 70.5 | 77.9 | 71.7 | 84.1 | 84.4 | 85.8 | 79.2 | 80.3 | 67.4 | 72 | 52.1
11 | CN(C)[S+](=O)([O-])c1ccc2c(c1)C(=Cc1cc3c([nH]1)CCCC3)C(=O)N2 | 124 | 114 | 122 | 121 | 123 | 117 | 125 | 122 | 111 | 110 | 112 |  |  |  |  |  |  |  |  |  |  |  | 118 | 125 | 121 | 116 | 114 | 125 | 128 | 124 | 122 | 106 | 108
12 | CC1(C)O[C@@H]2C[C@H]3[C@@H]4C[C@H](F)C5=CC(=O)C=C[C@]5(C)[C@@]4(F)[C@@H](O)C[C@]3(C)[C@]2(C(=O)CO)O1 | 107 | 110 | 99.4 | 83.8 | 71.1 | 56.4 | 69.1 | 60.7 | 52.6 | 62.9 | 53 | 106 | 99.4 | 96.4 | 78.7 | 55.4 | 53.2 | 50.2 | 53 | 51.7 | 46.4 | 43.5 | 74.9 | 103 | 94.6 | 67.9 | 50.8 | 46.7 | 47.6 | 42.5 | 40.6 | 36.8 | 30.4
13 | C[C@H]1C[C@@H]2[C@H](CC[C@@]3(C)[C@H]2CC[C@]3(OC(C)=O)C(C)=O)[C@@]\4(C)CCC(=O)\C=C14 | 99.8 | 105 | 111 | 107 | 122 | 115 | 114 | 107 | 98.7 | 95.5 | 107 | 112 | 112 | 123 | 108 | 113 | 113 | 110 | 101 | 94.3 | 80.3 | 96.3 | 101 | 113 | 102 | 107 | 120 | 103 | 96.3 | 93.7 | 96 | 80.1 | 88.4
14 | CC[C@H](NC1=C2N=C[NH]C2=NC=N1)C/3=N/C4=C(C(=CC=C4)F)C(=O)N3C5=CC=CC=C5 | 125 | 118 | 122 | 131 | 133 | 120 | 115 | 118 | 101 | 88.9 | 56.3 | 114 | 115 | 118 | 120 | 128 | 104 | 86.6 | 94.7 | 78.2 | 61.9 | 50.2 | 124 | 123 | 125 | 132 | 131 | 115 | 99.7 | 98.7 | 91.7 | 70.7 | 51.9
15 | COc1cc(OC2CCN(C)CC2)ccc1Nc1ncc2c(n1)n(C1CCCC1)c(=O)n2C | 83.2 | 85.4 | 83 | 91.2 | 91.6 | 97.9 | 88.5 | 92.8 | 99.6 | 86.2 | 2.55 | 74.9 | 93.8 | 82.7 | 88.2 | 85.8 | 81.4 | 91.6 | 81.3 | 87.2 | 69.9 | 5.17 | 76.7 | 80.6 | 76.3 | 85.5 | 86.1 | 80.4 | 86.5 | 83 | 85.6 | 61.4 | 0.821
16 | CC(C)c1ccc2c(c1)c(SC(C)(C)C)c(CC(C)(C)C(=O)[O-])n2Cc1ccc(Cl)cc1 | 98.5 | 98.9 | 99.7 | 103 | 97 | 98.4 | 94.8 | 93.4 | 90.3 | 87.5 | 90.8 | 96.3 | 91.5 | 100 | 96.2 | 96 | 96.3 | 92.6 | 92.3 | 88.2 | 85.3 | 89.9 | 87 | 93.6 | 90.3 | 88.8 | 94.8 | 88.3 | 93.8 | 89.3 | 81.7 | 82.2 | 84.5

Source: the supplement of paper PMC11451515
